The results in this text go back to patent US11034659B2, “Pyrimidine derivative” (Daiichi Sankyo Company, Limited, priority 2016, dated 2021).

Counter-ions that a name gives are not always drawn.

The test relates to CuFi-1 cells. The test can be described thus: Secretory activity for chloride ions (MQAE fluorescence) in CuFi-1 cells. The format is cell-based. The settings on record: Homo sapiens, CuFi-1, CuFi-1 cells, zinc final concentration 10 μM. On the procedure:
Measurement of the secretory activity for chloride ions was performed in accordance with a previous report (West and Molloy, 1996). CuFi-1 cells were plated on a 96 well plate in 3×10^4 cells/well and incubated for two nights. After removing the culture medium, 100 μL/well of N-(ethoxycarbonylmethyl)-6-methoxyquinolinium bromide (MQAE) (diluted with culture medium and the concentration adjusted to 5 mM) was added. After the addition of MQAE, the cells were incubated for one night so that the indicator was passively loaded. After the loading, the cells were washed two times with Assay buffer, and 100 μL/well of Assay buffer was added. The secretory capacity for chloride ions was measured using FlexStation 1 (fluorescence wavelength of Ex: 355 nm/Em: 460 nm). In order to measure the basic value, nothing was added for 34 seconds immediately after the start of the measurement. Then, at this point, 100 μL/well of the test compound and zinc (final concentration: 10 μM) diluted with Assay buffer, which is free of chloride ions, was added, and the measurement was continued for 86 seconds (total measurement time: 120 seconds). The secretory capacity for chloride ions was calculated by dividing the average of RFU values in 10 seconds between 110 seconds and 120 seconds after the start of the measurement with the average between 0 second and 34 seconds (the basic value). The secretory activity for chloride ions of the test compound (EC50 value) was calculated by obtaining the secretory capacity for chloride ions at each concentration of the serially diluted test compound, and determining a concentration of the test compound that provides a secretory capacity of 50% from two secretory capacities and concentrations sandwiching 50% of the maximum response of each compound.
Take `CCOc1nc(C(=O)O)nc(CC)c1Cc1ccccc1Cl` [Example 62]: it took 4.9 nM to reach a half-maximal effect (EC50). That is a single-digit nanomolar value.
For `CCc1nc(C(=O)O)nc(OCCCF)c1Cc1ccccc1Cl` [Example 63] the value was 4.8 nM.
To `CCCOc1nc(C(=O)O)nc(CC)c1Cc1ccccc1Cl` [Example 64] belongs 14.9 nM; to `COc1nc(C(=O)O)nc(C)c1Cc1cccc(Cl)c1Cl` [Example 66], 17.4 nM; to `COc1ccc(Cc2c(C)nc(C(=O)O)nc2OC)c(Cl)c1` [Example 67], 15.9 nM.
For `COc1nc(C(=O)O)nc(C)c1Cc1ccc(C(F)(F)F)cc1Cl` [Example 68] the value was 4 nM; for `COc1nc(C(=O)O)nc(C)c1Cc1ccc(F)cc1Cl` [Example 69], 26.7 nM; for `COc1nc(C(=O)O)nc(C(C)C)c1Cc1ccccc1Cl` [Example 70], 59.9 nM.
With `COc1nc(C(=O)O)nc(C(C)C)c1Cc1ccc(Cl)cc1Cl` [Example 71], a half-maximal response (EC50) required 30.2 nM.
`COc1nc(C(=O)O)nc(C(C)C)c1Cc1ccc(C(F)(F)F)cc1Cl` [Example 72]: a half-maximal effect (EC50) was put at 2.6 nM.
`COc1nc(C(=O)O)nc(C)c1Cc1ccccc1C(C)C` [Example 73]: it took 35.2 nM to reach a half-maximal effect (EC50).
As to `Cc1nc(C(=O)O)nc(OC(C)C)c1Cc1ccccc1Cl` [Example 74, 5-(2-Chlorobenzyl)-4-isopropoxy-6-methylpyrimidine-2-carboxylic acid], it took 33.4 nM to reach a half-maximal effect (EC50).
To `CSc1nc(C(=O)O)nc(C)c1Cc1ccc(Cl)cc1Cl` [Example 75, 5-(2,4-Dichlorobenzyl)-4-methyl-6-(methylthio)pyrimidine-2-carboxylic acid] belongs 3.7 nM; to `CSc1nc(C(=O)O)nc(C)c1Cc1ccccc1Cl` [Example 76], 15.2 nM; to `CCc1nc(C(=O)O)nc(SC)c1Sc1ccc(Cl)cc1Cl` [Example 77], 14.6 nM.
To `CCc1nc(C(=O)O)nc(SC)c1Cc1ccccc1Cl` [Example 78] belongs 4.6 nM.
For `CCSc1nc(C(=O)O)nc(C)c1Cc1ccc(Cl)cc1Cl` [Example 79, 5-(2,4-Dichlorobenzyl)-4-(ethylthio)-6-methylpyrimidine-2-carboxylic acid] the value was 6.6 nM; for `CCSc1nc(C(=O)O)nc(C)c1Oc1ccc(Cl)cc1Cl` [Example 80], 49.4 nM; for `CCSc1nc(C(=O)O)nc(C)c1Cc1ccc(C#N)cc1Cl` [Example 81], 5.5 nM.
In the case of `Cc1nc(C(=O)O)nc(SCCO)c1Sc1ccc(Cl)cc1Cl` [Example 82], the EC50 (usually the midpoint of the concentration-response curve) was determined as 30.8 nM.
The compound `Cc1nc(C(=O)O)nc(SC(C)C)c1Sc1ccccc1Cl` [Example 83, 5-((2-Chlorophenyl)thio)-4-(isopropylthio)-6-methylpyrimidine-2-carboxylic acid hydrochloride] yielded an EC50 of 50.7 nM. This EC50 lies about 1.6-fold higher than the previous one.
Take `Cc1nc(C(=O)O)nc(SC(C)C)c1Cc1ccccc1Cl` [Example 84]: a half-maximal effect (EC50) was put at 10.4 nM.
The compound `CSc1nc(C(=O)O)nc(C)c1Nc1ccccc1Cl` [Example 85, 5-((2-Chlorophenyl)amino)-4-methyl-6-(methylthio)pyrimidine-2-carboxylic acid hydrochloride] returned an EC50 of 30.2 nM.
On to `CCNc1nc(C(=O)O)nc(C)c1Nc1ccccc1Cl` [Example 86, 5-((2-Chlorophenyl)amino)-4-(ethylamino)-6-methylpyrimidine-2-carboxylic acid hydrochloride], for which the EC50 came to 13.1 nM.
In turn, `CNc1nc(C(=O)O)nc(C)c1Cc1ccccc1Cl` [Example 87, 5-(2-Chlorobenzyl)-4-methyl-6-(methylamino)pyrimidine-2-carboxylic acid] had an EC50 of 8.2 nM.
Compound `Cc1nc(C(=O)O)nc(Cc2ccccc2Cl)c1Cc1ccccc1Cl` [Example 88, 4,5-Bis(2-chlorobenzyl)-6-methylpyrimidine-2-carboxylic acid] registered an EC50 of 7.1 nM.
Take `Cc1nc(C(=O)O)nc(OCc2cccc(C#N)c2)c1Cc1ccccc1Cl` [Example 89, 5-(2-Chlorobenzyl)-4-((3-cyanobenzyl)oxy)-6-methylpyrimidine-2-carboxylic acid]: the EC50 turned out to be 5.1 nM.
To `Cc1nc(C(=O)O)nc(OCc2ccccc2)c1Cc1ccccc1Cl` [Example 90] belongs 6.4 nM.
Compound `Cc1nc(C(=O)O)nc(O[C@H]2C[C@H](C#N)C2)c1Cc1ccccc1Cl` [Example 91] displayed an EC50 of 13.2 nM.
As for `Cc1nc(C(=O)O)nc(O[C@H]2C[C@@H](C#N)C2)c1Cc1ccccc1Cl` [Example 92], the EC50 is 5.1 nM.
Compound `Cc1nc(C(=O)O)nc(OCc2cccnc2)c1Cc1ccccc1Cl` [Example 93] displayed an EC50 of 2.2 nM.
To `Cc1nc(C(=O)O)nc(OCc2ccncc2)c1Cc1ccccc1Cl` [Example 94] belongs 2.2 nM.
`Cc1nc(C(=O)O)nc(OCc2ccccn2)c1Cc1ccccc1Cl` [Example 95] yielded a half-maximal effective concentration (EC50) of 3.3 nM.
To `Cc1ccc(COc2nc(C(=O)O)nc(C)c2Cc2ccccc2Cl)cn1` [Example 96] belongs 2.4 nM; to `Cc1nc(C(=O)O)nc(OCc2ccc(F)cc2)c1Cc1ccccc1Cl` [Example 97], 5.7 nM; to `Cc1nc(C(=O)O)nc(OCc2cccc(F)c2)c1Cc1ccccc1Cl` [Example 98], 13.5 nM.
To `Cc1nc(C(=O)O)nc(OCc2ccccc2F)c1Cc1ccccc1Cl` [Example 99] belongs 5.1 nM.
Regarding `Cc1nc(C(=O)O)nc(OCc2ccc(F)cc2F)c1Cc1ccccc1Cl` [Example 100], the EC50 was determined as 11.1 nM.
Turning to `Cc1nc(C(=O)O)nc(CCc2ccncc2)c1Cc1ccccc1Cl` [Example 101, 5-(2-Chlorobenzyl)-4-methyl-6-(2-(pyridin-4-yl)ethyl)pyrimidine-2-carboxylic acid], it took 8.9 nM to reach a half-maximal effect (EC50).
For `Cc1nc(C(=O)O)nc(CCc2cccnc2)c1Cc1ccccc1Cl` [Example 102] the value was 5.2 nM.
`Cc1nc(C(=O)O)nc(C)c1Cc1ccccc1Cl` [Example 103, 5-(2-Chlorobenzyl)-4,6-dimethylpyrimidine-2-carboxylic acid] gave an EC50 of 20.8 nM.
In turn, `Cc1nc(C(=O)O)nc(C)c1Cc1ccc(Cl)cc1Cl` [Example 104] had an EC50 of 9.9 nM. This EC50 lies about 2.1-fold lower than the previous one.
For `CNc1nc(-c2nnn[nH]2)nc(C)c1Cc1ccc(Cl)cc1Cl` [Example 105, 5-(2,4-Dichlorobenzyl)-N,6-dimethyl-2-(1H-tetrazol-5-yl)pyrimidin-4-amine] the value was 2.1 nM.
On to `CNc1nc(-c2nnn[nH]2)nc(C)c1Sc1ccc(Cl)cc1Cl` [Example 106], for which the EC50 came out at 2.9 nM.
